Assay results as given in ChEMBL document CHEMBL1201862, “PubChem BioAssay data set” (2004).
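48-hour exposure; five concentrations; linearly interpolated endpoints. Abbreviation: GI50, concentration required for 50% inhibition of growth.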 The source made the active and inactive calls. Rule as the data show it: active = GI50 up to about 1.1 µM and inactive = higher.

Key:
Assay in all cases: NCI anticancer screen, dose series, 48 h
NCI-H522 = system: NCI-H522
MDA-MB-231 = system: MDA-MB-231
UACC-62 = system: UACC-62
NCI-H23 = system: NCI-H23
SF-539 = system: SF-539
MCF7 = system: MCF7
EKVX = system: EKVX
HCT-15 = system: HCT-15
SNB-19 = system: SNB-19
RXF 393 = system: RXF 393
OVCAR-4 = system: OVCAR-4
A498 = system: A498
SK-MEL-28 = system: SK-MEL-28
Malme-3M = system: Malme-3M
MDA-MB-435 = system: MDA-MB-435
NCI-H460 = system: NCI-H460
HOP-92 = system: HOP-92
UACC-257 = system: UACC-257
BT-549 = system: BT-549
LXFL 529 = system: LXFL 529

| SMILES | GI50 (NCI-H522) | GI50 (MDA-MB-231) | GI50 (UACC-62) | GI50 (NCI-H23) | GI50 (SF-539) | GI50 (MCF7) | GI50 (EKVX) | GI50 (HCT-15) [µM] | GI50 (SNB-19) | GI50 (RXF 393) | GI50 (OVCAR-4) | GI50 (A498) | GI50 (SK-MEL-28) | GI50 (Malme-3M) | GI50 (MDA-MB-435) | GI50 (NCI-H460) | GI50 (HOP-92) | GI50 (UACC-257) | GI50 (BT-549) | GI50 (LXFL 529) |
| --- | --- | --- | --- | --- | --- | --- | --- | --- | --- | --- | --- | --- | --- | --- | --- | --- | --- | --- | --- | --- |
| O=c1[nH]c2cc([N+](=O)[O-])c(N/N=C/c3ccc(Cl)cc3Cl)c([N+](=O)[O-])c2[nH]1 | 31.1 µM (inactive) | 13.1 µM (inactive) | > 100 µM (inactive) | 71.3 µM (inactive) | > 100 µM (inactive) | 42.6 µM (inactive) | > 100 µM (inactive) | 40.3 | 64 µM (inactive) | 18.2 µM (inactive) | 13.6 µM (inactive) | 14.3 µM (inactive) | > 100 µM (inactive) | 31.2 µM (inactive) | 5.21 µM (inactive) | 83 µM (inactive) | 32.9 µM (inactive) | > 100 µM (inactive) | > 100 µM (inactive) |  |
| CC(C)(C)c1cc2c(OC/C=C/c3ccccc3)c(c1)Cc1cc(C(C#N)(OC/C=C/c3ccccc3)OC/C=C/c3ccccc3)cc(c1OC/C=C\c1ccccc1)Cc1cc(C(C)(C)C)cc(c1OC/C=C/c1ccccc1)Cc1cc(C(C#N)(OC/C=C\c3ccccc3)OC/C=C/c3ccccc3)cc(c1OC/C=C\c1ccccc1)C2 (configuration not stated) | > 100 µM (inactive) | 30.4 µM (inactive) | > 100 µM (inactive) | > 100 µM (inactive) | > 100 µM (inactive) | > 100 µM (inactive) | > 100 µM (inactive) | > 100 | > 100 µM (inactive) | > 100 µM (inactive) | > 100 µM (inactive) | > 100 µM (inactive) | > 100 µM (inactive) | 83.4 µM (inactive) | > 100 µM (inactive) | > 100 µM (inactive) | 95.5 µM (inactive) | > 100 µM (inactive) | > 100 µM (inactive) |  |
| N#Cc1c2ccccc2cn1-c1ccc(F)cc1 | 14.4 µM (inactive) |  | 30 µM (inactive) | 17.7 µM (inactive) | 24.8 µM (inactive) |  |  | > 10 | 22.4 µM (inactive) |  | 8.73 µM (inactive) |  | 47.8 µM (inactive) | 33.7 µM (inactive) |  | 29.7 µM (inactive) | 20.6 µM (inactive) | 26.9 µM (inactive) |  | 31.3 µM (inactive) |
| Cc1cccc(CC(Cc2ccc(C)cc2C(=O)O)C(=O)O)c1 (configuration not stated) | > 100 µM (inactive) | > 100 µM (inactive) | 42 µM (inactive) | > 100 µM (inactive) | > 100 µM (inactive) | > 100 µM (inactive) | > 100 µM (inactive) | > 100 | > 100 µM (inactive) | > 100 µM (inactive) | > 100 µM (inactive) | > 100 µM (inactive) | > 100 µM (inactive) | > 100 µM (inactive) | > 100 µM (inactive) | > 100 µM (inactive) | > 100 µM (inactive) | > 100 µM (inactive) | > 100 µM (inactive) |  |
| CN(C)CC1=Nc2cccc3cccc(c23)N1 | 1.89 µM (inactive) | 17.8 µM (inactive) | 16.1 µM (inactive) | 22.9 µM (inactive) | 19.8 µM (inactive) | 13.1 µM (inactive) | 17.2 µM (inactive) | 23.8 | > 100 µM (inactive) | 17.9 µM (inactive) | 13.3 µM (inactive) | 14.9 µM (inactive) | 22.1 µM (inactive) | 22 µM (inactive) | 20.2 µM (inactive) | 34.3 µM (inactive) | 18.8 µM (inactive) | 16.9 µM (inactive) | 17.6 µM (inactive) |  |
| CC(C)=CCC(O)[C@](C)(O)[C@H]1[C@H](O)C[C@@]2(C)[C@@H]3CCc4cc(O)c(OC5OC(CO)C(O)C(O)C5O)cc4C3(C)C(=O)C[C@]12C (some centres not stated) | > 100 µM (inactive) | > 100 µM (inactive) | > 100 µM (inactive) | > 100 µM (inactive) | > 100 µM (inactive) | > 100 µM (inactive) | > 100 µM (inactive) | > 100 | > 100 µM (inactive) | > 100 µM (inactive) | > 100 µM (inactive) | > 100 µM (inactive) | > 100 µM (inactive) | > 100 µM (inactive) | > 100 µM (inactive) | > 100 µM (inactive) | > 100 µM (inactive) | > 100 µM (inactive) | > 100 µM (inactive) |  |
| COc1cc2c(c3c1c(=O)c1ccccc1n3C)C=CC(C)(C)O2 [ACRONINE] | 18.5 µM (inactive) |  | 96.2 µM (inactive) | 33.4 µM (inactive) | 37.8 µM (inactive) |  |  | 45.3 | > 100 µM (inactive) | 25.1 µM (inactive) | > 100 µM (inactive) |  | 48.6 µM (inactive) | > 100 µM (inactive) |  | 43.6 µM (inactive) | > 100 µM (inactive) | > 100 µM (inactive) |  | 94 µM (inactive) |
